Test results reported in ChEMBL document CHEMBL1201862, “PubChem BioAssay data set” (2004).
Values belong to the compound of their own block, whether it stands above or below them. Active and inactive are the calls of the source.

Assays:
[1] = molecular target: T1, Probable nicotinate-nucleotide adenylyltransferase (Staphylococcus aureus (strain N315), UniProt P65502); assay type: functional, Staphylococcus aureus subsp. aureus N315;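 for IC50 Mean: confirmatory dose-response retesting of NadD inhibitor hits first found in an ultra-high-throughput screen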
[2] = molecular target: T1, Probable nicotinate-nucleotide adenylyltransferase; assay type: functional, Staphylococcus aureus subsp. aureus N315; conditions: read-out: IC50_Mean
[3] = molecular target: T2, Tyrosine-protein phosphatase non-receptor type 22 (Homo sapiens, UniProt Q9Y2R2); assay: PTPN22 enzyme inhibitors – biochemical, fluorescence, LYP catalytic domain, selectivity assay for LMPTP inhibitor project, dose response (AID 652006); assay type: functional; conditions: read-out: IC50_Mean
T2 sequence (Q9Y2R2 whole entry): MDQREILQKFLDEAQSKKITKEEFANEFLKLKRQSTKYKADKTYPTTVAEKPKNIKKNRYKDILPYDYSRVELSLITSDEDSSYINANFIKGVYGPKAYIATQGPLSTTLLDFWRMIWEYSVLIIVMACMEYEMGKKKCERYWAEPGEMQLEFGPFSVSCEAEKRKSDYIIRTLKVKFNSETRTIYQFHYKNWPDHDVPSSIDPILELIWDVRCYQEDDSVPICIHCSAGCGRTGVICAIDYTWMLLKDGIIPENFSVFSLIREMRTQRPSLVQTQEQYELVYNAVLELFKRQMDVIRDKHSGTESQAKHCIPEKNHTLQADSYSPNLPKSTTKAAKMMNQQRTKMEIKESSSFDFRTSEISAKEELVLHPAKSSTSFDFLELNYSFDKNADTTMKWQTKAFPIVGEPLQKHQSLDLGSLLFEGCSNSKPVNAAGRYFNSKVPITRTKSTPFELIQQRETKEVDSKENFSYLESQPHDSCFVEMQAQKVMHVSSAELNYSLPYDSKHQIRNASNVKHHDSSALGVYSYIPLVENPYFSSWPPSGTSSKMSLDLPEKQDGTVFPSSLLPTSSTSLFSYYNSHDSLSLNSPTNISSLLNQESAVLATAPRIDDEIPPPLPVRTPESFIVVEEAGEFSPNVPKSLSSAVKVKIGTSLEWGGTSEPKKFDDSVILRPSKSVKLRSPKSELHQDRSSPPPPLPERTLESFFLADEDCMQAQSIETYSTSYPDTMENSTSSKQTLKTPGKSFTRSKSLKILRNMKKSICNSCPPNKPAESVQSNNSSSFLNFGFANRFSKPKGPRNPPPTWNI

[4] = molecular target: T3, Low molecular weight phosphotyrosine protein phosphatase (Homo sapiens, UniProt P24666); assay type: functional; conditions: read-out: IC50_Mean
T3 sequence (P24666 whole entry): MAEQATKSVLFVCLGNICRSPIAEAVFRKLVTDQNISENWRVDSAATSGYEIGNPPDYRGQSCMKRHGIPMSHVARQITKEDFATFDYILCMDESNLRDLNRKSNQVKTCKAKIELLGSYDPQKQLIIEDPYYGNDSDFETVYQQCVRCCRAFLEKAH

[5] = molecular target: Dual specificity tyrosine-phosphorylation-regulated kinase 1A (Rattus norvegicus, UniProt Q63470); assay type: biochemical, Homo sapiens
[6] = molecular target: T3, Low molecular weight phosphotyrosine protein phosphatase; assay type: functional; conditions: read-out: IC50_Mean; remark: listed apart in the source
[7] = molecular target: ADP-ribosylation factor GTPase-activating protein 1 (Rattus norvegicus, UniProt Q62848); assay: Fluorescence polarization-based biochemical high throughput dose response screening assay to identify inhibitors of ADP-ribosylation factor GTPase activating protein 1 (ARFGAP1).; assay type: functional
Chain of ADP-ribosylation factor GTPase-activating protein 1 (Q62848 whole entry, the tested form may be a part): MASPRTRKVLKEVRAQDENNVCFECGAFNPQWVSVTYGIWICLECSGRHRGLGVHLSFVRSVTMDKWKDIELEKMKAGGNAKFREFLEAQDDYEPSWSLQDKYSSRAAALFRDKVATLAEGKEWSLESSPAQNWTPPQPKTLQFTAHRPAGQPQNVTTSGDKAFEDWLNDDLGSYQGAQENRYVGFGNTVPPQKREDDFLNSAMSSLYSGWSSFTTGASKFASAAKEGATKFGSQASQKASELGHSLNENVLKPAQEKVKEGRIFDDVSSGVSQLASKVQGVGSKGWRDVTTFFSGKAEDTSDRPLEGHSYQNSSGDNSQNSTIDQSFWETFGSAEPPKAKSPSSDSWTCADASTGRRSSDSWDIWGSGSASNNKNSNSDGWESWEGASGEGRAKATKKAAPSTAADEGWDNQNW

[8] = molecular target: Photoreceptor-specific nuclear receptor (Homo sapiens, UniProt Q9Y5X4); assay type: functional, cell-based;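 note: CHO-S cells with Gal4-NCOR and VP16-NR2E3 two-hybrid luciferase reporter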
Chain of Photoreceptor-specific nuclear receptor (Q9Y5X4 whole entry, the tested form may be a part): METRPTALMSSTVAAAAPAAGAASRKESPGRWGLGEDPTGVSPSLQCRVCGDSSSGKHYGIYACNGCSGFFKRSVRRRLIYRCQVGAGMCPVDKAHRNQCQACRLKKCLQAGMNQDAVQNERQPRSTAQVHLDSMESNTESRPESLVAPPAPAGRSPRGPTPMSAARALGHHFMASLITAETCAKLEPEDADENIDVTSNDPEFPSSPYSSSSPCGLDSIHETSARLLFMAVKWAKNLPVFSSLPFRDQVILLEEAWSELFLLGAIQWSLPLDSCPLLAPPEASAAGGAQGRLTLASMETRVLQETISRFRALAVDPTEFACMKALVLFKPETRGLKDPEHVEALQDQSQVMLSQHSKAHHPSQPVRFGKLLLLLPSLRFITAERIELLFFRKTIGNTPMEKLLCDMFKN

[9] = molecular target: Arf-GAP with SH3 domain, ANK repeat and PH domain-containing protein 1 (Homo sapiens, UniProt Q9ULH1); assay type: functional;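 note: biochemical fluorescence polarization dose–response screen measuring inhibition of ASAP1; ASAP1 GAP domain stimulating GTP hydrolysis by truncated human ARF1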
Chain of Arf-GAP with SH3 domain, ANK repeat and PH domain-containing protein 1 (Q9ULH1 whole entry, the tested form may be a part): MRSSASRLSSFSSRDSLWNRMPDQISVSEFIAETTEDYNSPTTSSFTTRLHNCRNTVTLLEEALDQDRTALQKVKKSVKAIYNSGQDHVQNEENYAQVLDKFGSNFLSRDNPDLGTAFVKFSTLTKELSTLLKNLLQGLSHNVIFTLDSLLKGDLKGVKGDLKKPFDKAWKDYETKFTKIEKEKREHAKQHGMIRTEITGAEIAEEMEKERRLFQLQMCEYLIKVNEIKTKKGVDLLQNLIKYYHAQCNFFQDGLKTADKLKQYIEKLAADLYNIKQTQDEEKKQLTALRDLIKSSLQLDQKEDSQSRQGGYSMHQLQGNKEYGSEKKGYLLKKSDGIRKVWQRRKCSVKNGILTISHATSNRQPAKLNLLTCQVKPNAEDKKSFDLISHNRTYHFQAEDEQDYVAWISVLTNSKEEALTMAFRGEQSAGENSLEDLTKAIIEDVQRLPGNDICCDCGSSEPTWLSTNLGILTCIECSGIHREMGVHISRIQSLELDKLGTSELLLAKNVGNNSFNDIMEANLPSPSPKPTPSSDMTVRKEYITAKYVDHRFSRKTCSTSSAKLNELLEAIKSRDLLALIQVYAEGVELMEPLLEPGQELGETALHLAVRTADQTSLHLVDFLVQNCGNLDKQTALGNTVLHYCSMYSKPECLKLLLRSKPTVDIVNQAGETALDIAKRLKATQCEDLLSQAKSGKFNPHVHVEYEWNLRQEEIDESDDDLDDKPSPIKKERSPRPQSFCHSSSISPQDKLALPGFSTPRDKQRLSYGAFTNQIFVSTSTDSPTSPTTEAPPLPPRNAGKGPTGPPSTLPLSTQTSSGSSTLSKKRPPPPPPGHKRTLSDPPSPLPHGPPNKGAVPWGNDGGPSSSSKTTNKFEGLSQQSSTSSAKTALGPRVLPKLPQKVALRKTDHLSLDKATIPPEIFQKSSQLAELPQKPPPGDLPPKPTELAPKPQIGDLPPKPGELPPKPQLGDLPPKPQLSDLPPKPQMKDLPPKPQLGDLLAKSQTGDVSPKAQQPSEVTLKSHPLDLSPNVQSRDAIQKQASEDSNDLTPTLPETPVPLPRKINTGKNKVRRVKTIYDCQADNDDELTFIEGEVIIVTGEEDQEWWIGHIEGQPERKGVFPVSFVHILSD

Estrogen receptor = molecular target: T4, Estrogen receptor (Homo sapiens, UniProt P03372);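 note: potency for inhibiting coactivator peptide recruitment to the receptor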
T4 sequence (P03372 whole entry): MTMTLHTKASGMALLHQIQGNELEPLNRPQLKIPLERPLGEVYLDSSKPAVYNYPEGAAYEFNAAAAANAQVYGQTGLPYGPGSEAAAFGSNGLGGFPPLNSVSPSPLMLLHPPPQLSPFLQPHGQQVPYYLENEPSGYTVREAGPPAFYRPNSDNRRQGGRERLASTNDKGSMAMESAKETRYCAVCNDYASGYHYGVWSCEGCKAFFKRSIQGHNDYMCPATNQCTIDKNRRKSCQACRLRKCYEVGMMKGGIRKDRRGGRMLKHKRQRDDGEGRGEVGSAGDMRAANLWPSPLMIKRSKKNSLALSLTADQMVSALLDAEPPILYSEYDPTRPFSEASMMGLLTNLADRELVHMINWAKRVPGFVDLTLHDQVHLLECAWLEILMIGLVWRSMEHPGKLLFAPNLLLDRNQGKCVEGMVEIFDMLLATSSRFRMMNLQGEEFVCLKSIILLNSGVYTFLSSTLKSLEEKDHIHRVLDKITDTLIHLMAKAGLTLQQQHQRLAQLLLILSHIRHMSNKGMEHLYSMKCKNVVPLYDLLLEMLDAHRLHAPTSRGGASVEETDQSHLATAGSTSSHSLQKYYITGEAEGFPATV

[10] = molecular target: T5, Sentrin-specific protease 1 (Homo sapiens, UniProt Q9P0U3); assay: SENP1 catalytic domain blockers, concentration series – biochemical, kinetic FRET, dose response (AID 651697); assay type: functional; conditions: read-out: IC50_Mean
T5 sequence (Q9P0U3 whole entry): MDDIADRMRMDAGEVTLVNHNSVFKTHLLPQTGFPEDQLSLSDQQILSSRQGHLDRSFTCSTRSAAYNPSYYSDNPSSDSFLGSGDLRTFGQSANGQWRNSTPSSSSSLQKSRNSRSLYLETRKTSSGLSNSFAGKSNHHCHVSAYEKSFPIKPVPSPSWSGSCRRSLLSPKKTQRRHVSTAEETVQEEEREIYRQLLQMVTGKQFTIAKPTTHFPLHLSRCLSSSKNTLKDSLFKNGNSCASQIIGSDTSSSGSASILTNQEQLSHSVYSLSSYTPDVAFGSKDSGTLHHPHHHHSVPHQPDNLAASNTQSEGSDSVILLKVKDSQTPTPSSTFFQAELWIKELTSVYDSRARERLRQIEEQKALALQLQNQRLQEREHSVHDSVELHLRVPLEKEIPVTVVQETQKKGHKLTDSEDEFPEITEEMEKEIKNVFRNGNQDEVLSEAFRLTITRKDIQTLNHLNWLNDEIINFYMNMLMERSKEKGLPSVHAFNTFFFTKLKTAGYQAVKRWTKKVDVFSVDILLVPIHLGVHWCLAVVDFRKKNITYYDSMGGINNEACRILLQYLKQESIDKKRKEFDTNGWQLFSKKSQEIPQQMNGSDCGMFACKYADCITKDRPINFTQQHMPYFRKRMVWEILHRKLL

[11] = molecular target: T5, Sentrin-specific protease 1; assay: Dose response confirmation of small molecule inhibitors of the catalytic domain of the SUMO protease, SENP1 in a FRET assay.; assay type: functional; conditions: read-out: IC50_Mean
Steroidogenic factor 1 = Steroidogenic factor 1 (Homo sapiens, UniProt Q13285); assay: Counterscreen for inverse agonists of the liver receptor homolog-1 (LRH-1; NR5A2): Luminescence-based cell-based high throughput dose response assay to identify inverse agonists of the Steroidogenic Factor 1 Nuclear Receptor (SF1; NR5A1).; assay type: functional
Chain of Steroidogenic factor 1 (Q13285 whole entry): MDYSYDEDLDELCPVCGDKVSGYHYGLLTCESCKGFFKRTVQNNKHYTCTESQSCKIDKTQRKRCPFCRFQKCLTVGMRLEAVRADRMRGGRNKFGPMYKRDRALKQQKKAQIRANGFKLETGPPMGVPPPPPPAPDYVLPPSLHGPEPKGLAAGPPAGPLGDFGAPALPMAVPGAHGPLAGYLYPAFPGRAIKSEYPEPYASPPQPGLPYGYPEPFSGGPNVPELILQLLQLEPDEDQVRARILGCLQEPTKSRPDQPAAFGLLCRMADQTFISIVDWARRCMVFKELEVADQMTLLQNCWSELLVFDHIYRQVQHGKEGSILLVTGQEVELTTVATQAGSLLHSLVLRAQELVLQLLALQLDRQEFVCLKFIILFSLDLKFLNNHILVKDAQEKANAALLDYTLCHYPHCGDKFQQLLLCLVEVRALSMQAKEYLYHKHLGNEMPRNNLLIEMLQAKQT

[12] = molecular target: Nuclear receptor subfamily 5 group A member 2 (Homo sapiens, UniProt O00482); assay type: functional, cell-based;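 note: HEK293T cells transfected with LRH-1 and a StAR promoter luciferase reporter; potency for inhibitors that lower LRH-1 driven reporter light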
Chain of Nuclear receptor subfamily 5 group A member 2 (O00482 whole entry): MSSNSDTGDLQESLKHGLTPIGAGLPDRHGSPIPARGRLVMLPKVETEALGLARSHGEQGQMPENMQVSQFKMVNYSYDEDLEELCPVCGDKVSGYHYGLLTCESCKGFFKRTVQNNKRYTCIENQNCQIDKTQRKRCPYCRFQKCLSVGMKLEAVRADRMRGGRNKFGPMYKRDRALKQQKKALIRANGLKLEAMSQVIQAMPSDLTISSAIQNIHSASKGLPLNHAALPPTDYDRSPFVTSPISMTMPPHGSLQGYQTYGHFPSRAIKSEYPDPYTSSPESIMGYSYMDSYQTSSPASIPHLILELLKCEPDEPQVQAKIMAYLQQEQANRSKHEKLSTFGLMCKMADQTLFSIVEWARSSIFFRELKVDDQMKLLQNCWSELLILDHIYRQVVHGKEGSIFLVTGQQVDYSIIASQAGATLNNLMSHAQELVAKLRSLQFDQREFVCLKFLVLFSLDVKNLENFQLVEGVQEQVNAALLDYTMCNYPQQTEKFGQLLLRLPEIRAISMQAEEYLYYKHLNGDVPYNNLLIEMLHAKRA

[13] = nonselective StAR promoter luciferase inhibitors – cell-based, luminescence, luciferase reporter, counter-screen for LRH-1 inverse agonist project, dose response (AID 651969); assay type: functional
[14] = molecular target: T6, DNA repair and recombination protein RAD54-like (Homo sapiens, UniProt Q92698); assay: RAD54 Holliday junction migration blockers – biochemical, fluorescence, cherry-picked samples, dose series, confirmation (AID 651657); assay type: functional
T6 sequence (Q92698 whole entry): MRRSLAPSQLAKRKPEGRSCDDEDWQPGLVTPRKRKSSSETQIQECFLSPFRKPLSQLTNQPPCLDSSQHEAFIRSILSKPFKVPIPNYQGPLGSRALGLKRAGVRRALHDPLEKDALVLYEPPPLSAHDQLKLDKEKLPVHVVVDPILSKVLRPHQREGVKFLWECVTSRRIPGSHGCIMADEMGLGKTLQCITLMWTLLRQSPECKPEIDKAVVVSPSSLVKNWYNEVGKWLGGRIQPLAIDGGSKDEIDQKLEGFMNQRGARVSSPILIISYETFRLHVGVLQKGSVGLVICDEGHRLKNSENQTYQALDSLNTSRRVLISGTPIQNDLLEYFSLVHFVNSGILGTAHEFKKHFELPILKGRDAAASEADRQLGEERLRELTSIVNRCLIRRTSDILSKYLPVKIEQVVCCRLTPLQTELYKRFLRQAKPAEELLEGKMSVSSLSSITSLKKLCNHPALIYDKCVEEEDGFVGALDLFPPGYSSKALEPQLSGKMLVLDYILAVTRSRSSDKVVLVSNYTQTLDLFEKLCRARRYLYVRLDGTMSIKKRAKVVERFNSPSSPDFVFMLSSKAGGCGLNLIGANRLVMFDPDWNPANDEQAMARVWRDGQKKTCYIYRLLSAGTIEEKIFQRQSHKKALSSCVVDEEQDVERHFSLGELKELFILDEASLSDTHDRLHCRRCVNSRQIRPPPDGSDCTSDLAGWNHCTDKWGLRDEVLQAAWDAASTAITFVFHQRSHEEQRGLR

[15] = acridine orange displacement from DNA – biochemical, fluorescence polarization, cherry-pick, artefact control for RAD54 inhibitor project, dose response (AID 651673); assay type: functional
Paired box protein Pax-8 = Paired box protein Pax-8 (Homo sapiens, UniProt Q06710); assay: PAX8 transcriptional activity inhibition in RMG-I – RMG-I cells, luciferase, cherry-pick, dose response (AID 687027); assay type: functional, cell-based;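 note: luciferase reporter driven by Pax8 target thyroperoxidase promoter measured by SteadyGlo luminescence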
Chain of Paired box protein Pax-8 (Q06710 whole entry): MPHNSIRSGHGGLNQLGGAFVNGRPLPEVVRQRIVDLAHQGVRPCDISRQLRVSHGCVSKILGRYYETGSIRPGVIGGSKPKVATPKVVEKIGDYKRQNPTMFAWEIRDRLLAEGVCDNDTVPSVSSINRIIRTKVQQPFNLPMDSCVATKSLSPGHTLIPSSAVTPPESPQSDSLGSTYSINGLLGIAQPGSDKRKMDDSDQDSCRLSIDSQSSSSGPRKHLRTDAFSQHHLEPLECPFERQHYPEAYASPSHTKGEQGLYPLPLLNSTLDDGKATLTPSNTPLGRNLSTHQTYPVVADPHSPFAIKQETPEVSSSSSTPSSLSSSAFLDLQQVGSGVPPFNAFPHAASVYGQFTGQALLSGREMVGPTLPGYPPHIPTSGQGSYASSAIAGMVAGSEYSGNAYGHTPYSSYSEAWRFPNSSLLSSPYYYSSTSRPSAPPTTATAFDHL

[16] = mouse fibroblast viability loss – cell-based, cherry-pick samples, set 2, cytotoxicity control for T. cruzi growth inhibitor project, dose response (AID 651817); assay type: functional; conditions: NIH3T3

SMILES: CC(C)(C)n1nc2c(c1NC(=O)c1ccc(S(=O)(=O)N3CCCC3)cc1)CSC2
- IC50 [1]: 12.7 µM (active)
- IC50 [2]: 36.1 µM (active)

SMILES: O=C(CSc1nnnn1-c1ccccc1)Nc1nsc(-c2ccc(Cl)cc2)n1
- IC50 [7]: 37.6 µM (inactive)
- IC50 [8]: 0.185 µM (active)
- IC50 [9]: 23.6 µM (inactive)
- IC50 (Estrogen receptor): 20.8 µM (active)

SMILES: COc1ccc(CCNC(=O)COC(=O)c2cccn2C)cc1
- IC50 (Steroidogenic factor 1): 7.32 µM (active)
- IC50 [12]: 35.9 µM (inactive)
- IC50 [13]: 35.9 µM (inactive)

SMILES: Cc1ccc(S(=O)(=O)Nc2ccc3c(c2)CC(=O)N([C@H](C)CO)C[C@H](C)[C@@H](CN(C)Cc2ccc(Cl)c(Cl)c2)O3)cc1
- AC50 (Paired box protein Pax-8): 13.3 µM (active)
- AC50 [16]: 13 µM (active)

Now from value to compound, other results behind:

- IC50 [3]: 80 µM (inactive)
- IC50 [4]: 6.78 µM (active)
- AC50 [5]: 6.73 µM (active)
- IC50 [6]: 22.7 µM (inactive)
SMILES: Cc1ccccc1Nc1cc(C)c2c(O)cccc2n1

- IC50 [10]: 5.42 µM (active)
- IC50 [11]: 4.9 µM (active)
SMILES: CCN(CC(=O)Nc1ccc(NC(C)=O)cc1)C(=O)CSc1ncnc2sc(C)c(C)c12

- AC50 [14]: 6.59 µM (active)
- IC50 [11]: 46.3 µM (inactive)
SMILES: CCN(CC)CCNc1cccc2sc3ccccc3c(=O)c12
- AC50 [15]: 51.4 µM (active)
